System: Phytophthora cactorum
Test: Antifungal activity against Phytophthora cactorum assessed as inhibition of mycelial growth at 200 ppm at 21 +/- 1 degC measured after 5 days
Format: functional
Details: 120 h, read-out: GI

Compound | inhibition of growth at 200 ppm [%]
Oc1ccc(C(=S)Nc2cccc3c2CCCC3)c(O)c1 | 81
O=C(c1ccccc1)c1ccc(NC(=S)c2ccc(O)cc2O)cc1 | 51
Oc1ccc(C(=S)Nc2ccccc2-n2cccc2)c(O)c1 | 81
Oc1ccc(C(=S)Nc2ccc(N3CCOCC3)cc2)c(O)c1 | 21
Oc1ccc(C(=S)Nc2nc(=S)ss2)c(O)c1 | 81
Cc1ccc2sc(-c3ccc(NC(=S)c4ccc(O)cc4O)cc3)nc2c1 | 0
COC(=O)Nc1nc2ccccc2[nH]1 [CARBENDAZIM] | 81
CCCN(CCOc1c(Cl)cc(Cl)cc1Cl)C(=O)n1ccnc1 [PROCHLORAZ] | 81

System: not listed separately
Test: Lipophilicity, log K of the compound in water
Format: physicochemical
Details: buffer

Compound | logKw
Oc1ccc(C(=S)Nc2nc(=S)ss2)c(O)c1 | 2.99
Cc1ccc2sc(-c3ccc(NC(=S)c4ccc(O)cc4O)cc3)nc2c1 | 4.87

More lines, now with the values ahead:

logKw | Compound
3.56 | Oc1ccc(C(=S)Nc2cccc3c2CCCC3)c(O)c1
4.28 | O=C(c1ccccc1)c1ccc(NC(=S)c2ccc(O)cc2O)cc1
3.59 | Oc1ccc(C(=S)Nc2ccccc2-n2cccc2)c(O)c1
2.49 | Oc1ccc(C(=S)Nc2ccc(N3CCOCC3)cc2)c(O)c1

System: Rhizoctonia solani
Test: Antifungal activity against Rhizoctonia solani assessed as inhibition of mycelial growth at 200 ppm at 21 +/- 1 degC measured after 4 days
Format: functional
Details: 96 h, read-out: GI

Compound | inhibition of growth at 200 ppm [%]
Oc1ccc(C(=S)Nc2cccc3c2CCCC3)c(O)c1 | 81
O=C(c1ccccc1)c1ccc(NC(=S)c2ccc(O)cc2O)cc1 | 51
Oc1ccc(C(=S)Nc2ccccc2-n2cccc2)c(O)c1 | 81
Oc1ccc(C(=S)Nc2ccc(N3CCOCC3)cc2)c(O)c1 | 0
Oc1ccc(C(=S)Nc2nc(=S)ss2)c(O)c1 | 81
Cc1ccc2sc(-c3ccc(NC(=S)c4ccc(O)cc4O)cc3)nc2c1 | 0
COC(=O)Nc1nc2ccccc2[nH]1 [CARBENDAZIM] | 81

System: Alternaria alternata
Test: Antifungal activity against Alternaria alternata assessed as inhibition of mycelial growth at 20 ppm at 21 +/- 1 degC measured after 5 days
Format: functional
Details: 120 h, read-out: GI

Compound | inhibition of growth at 20 ppm [%]
Oc1ccc(C(=S)Nc2cccc3c2CCCC3)c(O)c1 | 51
O=C(c1ccccc1)c1ccc(NC(=S)c2ccc(O)cc2O)cc1 | 0
Oc1ccc(C(=S)Nc2ccccc2-n2cccc2)c(O)c1 | 21
Oc1ccc(C(=S)Nc2ccc(N3CCOCC3)cc2)c(O)c1 | 0
Oc1ccc(C(=S)Nc2nc(=S)ss2)c(O)c1 | 21
Cc1ccc2sc(-c3ccc(NC(=S)c4ccc(O)cc4O)cc3)nc2c1 | 0
CCCN(CCOc1c(Cl)cc(Cl)cc1Cl)C(=O)n1ccnc1 [PROCHLORAZ] | 81
CC12CC1(C)C(=O)N(c1cc(Cl)cc(Cl)c1)C2=O (stereo not drawn) [PROCYMIDONE] | 81

System: Botrytis cinerea
Test: Antifungal activity against Botryotinia fuckeliana assessed as inhibition of mycelial growth at 20 ppm at 21 +/- 1 degC measured after 3 days
Format: functional
Details: 72 h, read-out: GI

Compound | inhibition of growth at 20 ppm [%]
Oc1ccc(C(=S)Nc2cccc3c2CCCC3)c(O)c1 | 51
O=C(c1ccccc1)c1ccc(NC(=S)c2ccc(O)cc2O)cc1 | 0
Oc1ccc(C(=S)Nc2ccccc2-n2cccc2)c(O)c1 | 21
Oc1ccc(C(=S)Nc2ccc(N3CCOCC3)cc2)c(O)c1 | 0
Oc1ccc(C(=S)Nc2nc(=S)ss2)c(O)c1 | 51
Cc1ccc2sc(-c3ccc(NC(=S)c4ccc(O)cc4O)cc3)nc2c1 | 0
CC12CC1(C)C(=O)N(c1cc(Cl)cc(Cl)c1)C2=O (stereo not drawn) [PROCYMIDONE] | 81

System: Phytophthora cactorum
Test: Antifungal activity against Phytophthora cactorum assessed as inhibition of mycelial growth at 20 ppm at 21 +/- 1 degC measured after 5 days
Format: functional
Details: 120 h, read-out: GI

Compound | inhibition of growth at 20 ppm [%]
Oc1ccc(C(=S)Nc2cccc3c2CCCC3)c(O)c1 | 51
O=C(c1ccccc1)c1ccc(NC(=S)c2ccc(O)cc2O)cc1 | 21
Oc1ccc(C(=S)Nc2ccccc2-n2cccc2)c(O)c1 | 21
Oc1ccc(C(=S)Nc2ccc(N3CCOCC3)cc2)c(O)c1 | 0
Oc1ccc(C(=S)Nc2nc(=S)ss2)c(O)c1 | 51
Cc1ccc2sc(-c3ccc(NC(=S)c4ccc(O)cc4O)cc3)nc2c1 | 0
COC(=O)Nc1nc2ccccc2[nH]1 [CARBENDAZIM] | 81
CCCN(CCOc1c(Cl)cc(Cl)cc1Cl)C(=O)n1ccnc1 [PROCHLORAZ] | 81

System: not listed separately
Test: Octanol-water partition coefficient, log P of the compound
Format: physicochemical
Details: not given

Compound | logP
Oc1ccc(C(=S)Nc2nc(=S)ss2)c(O)c1 | 4.45
Cc1ccc2sc(-c3ccc(NC(=S)c4ccc(O)cc4O)cc3)nc2c1 | 3.89

Results, then the compound that gave them:

logP | Compound
4.22 | Oc1ccc(C(=S)Nc2cccc3c2CCCC3)c(O)c1
4.12 | O=C(c1ccccc1)c1ccc(NC(=S)c2ccc(O)cc2O)cc1
3.29 | Oc1ccc(C(=S)Nc2ccccc2-n2cccc2)c(O)c1
2.79 | Oc1ccc(C(=S)Nc2ccc(N3CCOCC3)cc2)c(O)c1

System: Alternaria alternata
Test: Antifungal activity against Alternaria alternata assessed as inhibition of mycelial growth at 200 ppm at 21 +/- 1 degC measured after 5 days
Format: functional
Details: 120 h, read-out: GI

Compound | inhibition of growth at 200 ppm [%]
Oc1ccc(C(=S)Nc2cccc3c2CCCC3)c(O)c1 | 81
O=C(c1ccccc1)c1ccc(NC(=S)c2ccc(O)cc2O)cc1 | 51
Oc1ccc(C(=S)Nc2ccccc2-n2cccc2)c(O)c1 | 81
Oc1ccc(C(=S)Nc2ccc(N3CCOCC3)cc2)c(O)c1 | 0
Oc1ccc(C(=S)Nc2nc(=S)ss2)c(O)c1 | 81
Cc1ccc2sc(-c3ccc(NC(=S)c4ccc(O)cc4O)cc3)nc2c1 | 21
CCCN(CCOc1c(Cl)cc(Cl)cc1Cl)C(=O)n1ccnc1 [PROCHLORAZ] | 81
CC12CC1(C)C(=O)N(c1cc(Cl)cc(Cl)c1)C2=O (stereo not drawn) [PROCYMIDONE] | 81

System: Fusarium culmorum
Test: Antifungal activity against Fusarium culmorum assessed as inhibition of mycelial growth at 20 ppm at 21 +/- 1 degC measured after 5 days
Format: functional
Details: 120 h, read-out: GI

Compound | inhibition of growth at 20 ppm [%]
Oc1ccc(C(=S)Nc2cccc3c2CCCC3)c(O)c1 | 51
O=C(c1ccccc1)c1ccc(NC(=S)c2ccc(O)cc2O)cc1 | 0
Oc1ccc(C(=S)Nc2ccccc2-n2cccc2)c(O)c1 | 51
Oc1ccc(C(=S)Nc2ccc(N3CCOCC3)cc2)c(O)c1 | 0
Oc1ccc(C(=S)Nc2nc(=S)ss2)c(O)c1 | 21
Cc1ccc2sc(-c3ccc(NC(=S)c4ccc(O)cc4O)cc3)nc2c1 | 0
COC(=O)Nc1nc2ccccc2[nH]1 [CARBENDAZIM] | 81
CCCN(CCOc1c(Cl)cc(Cl)cc1Cl)C(=O)n1ccnc1 [PROCHLORAZ] | 81

System: Fusarium culmorum
Test: Antifungal activity against Fusarium culmorum assessed as inhibition of mycelial growth at 200 ppm at 21 +/- 1 degC measured after 5 days
Format: functional
Details: 120 h, read-out: GI

Compound | inhibition of growth at 200 ppm [%]
Oc1ccc(C(=S)Nc2cccc3c2CCCC3)c(O)c1 | 81
O=C(c1ccccc1)c1ccc(NC(=S)c2ccc(O)cc2O)cc1 | 51
Oc1ccc(C(=S)Nc2ccccc2-n2cccc2)c(O)c1 | 81
Oc1ccc(C(=S)Nc2ccc(N3CCOCC3)cc2)c(O)c1 | 21
Oc1ccc(C(=S)Nc2nc(=S)ss2)c(O)c1 | 81
Cc1ccc2sc(-c3ccc(NC(=S)c4ccc(O)cc4O)cc3)nc2c1 | 21
COC(=O)Nc1nc2ccccc2[nH]1 [CARBENDAZIM] | 81
CCCN(CCOc1c(Cl)cc(Cl)cc1Cl)C(=O)n1ccnc1 [PROCHLORAZ] | 81

System: Rhizoctonia solani
Test: Antifungal activity against Rhizoctonia solani assessed as inhibition of mycelial growth at 20 ppm at 21 +/- 1 degC measured after 4 days
Format: functional
Details: 96 h, read-out: GI

Compound | inhibition of growth at 20 ppm [%]
Oc1ccc(C(=S)Nc2cccc3c2CCCC3)c(O)c1 | 51
O=C(c1ccccc1)c1ccc(NC(=S)c2ccc(O)cc2O)cc1 | 0
Oc1ccc(C(=S)Nc2ccccc2-n2cccc2)c(O)c1 | 51
Oc1ccc(C(=S)Nc2ccc(N3CCOCC3)cc2)c(O)c1 | 0
Oc1ccc(C(=S)Nc2nc(=S)ss2)c(O)c1 | 21
Cc1ccc2sc(-c3ccc(NC(=S)c4ccc(O)cc4O)cc3)nc2c1 | 0
COC(=O)Nc1nc2ccccc2[nH]1 [CARBENDAZIM] | 81

System: Botrytis cinerea
Test: Antifungal activity against Botryotinia fuckeliana assessed as inhibition of mycelial growth at 200 ppm at 21 +/- 1 degC measured after 3 days
Format: functional
Details: 72 h, read-out: GI

Compound | inhibition of growth at 200 ppm [%]
Oc1ccc(C(=S)Nc2cccc3c2CCCC3)c(O)c1 | 81
O=C(c1ccccc1)c1ccc(NC(=S)c2ccc(O)cc2O)cc1 | 51
Oc1ccc(C(=S)Nc2ccccc2-n2cccc2)c(O)c1 | 81
Oc1ccc(C(=S)Nc2ccc(N3CCOCC3)cc2)c(O)c1 | 21
Oc1ccc(C(=S)Nc2nc(=S)ss2)c(O)c1 | 81
Cc1ccc2sc(-c3ccc(NC(=S)c4ccc(O)cc4O)cc3)nc2c1 | 0
CC12CC1(C)C(=O)N(c1cc(Cl)cc(Cl)c1)C2=O (stereo not drawn) [PROCYMIDONE] | 81
